Experimental findings from patent publication US20190150445A1, “SUBSTITUTED HALOGEN(THIO)ACYL COMPOUNDS” (priority 2016, published 2019) are described below.

The subject of one series is Lucilia cuprina. In words: Lucilia cuprina test (LUCICU). Format: in vivo. The settings on record: 48 h. The method, then: Lucilia cuprina—test (LUCICU)
(§1) Solvent: dimethyl sulfoxide
10 mg active compound are dissolved in 0,5 ml Dimethylsulfoxid. Serial dilutions are made to obtain the desired rates.
Approximately 20 1st instar larvae of the Australian sheep blowfly (Lucilia cuprina) are transferred into a test tube containing minced horse meat and compound solution of the desired concentration.
After 2 days mortality in % is determined. 100% means all the larvae have been killed; 0% means none of the larvae have been killed.

The next series relates to Diabrotica balteata. In words: Diabrotica balteata spray test. The series is classed as in vivo. The settings on record: 160 gg/well, larvae on germinated wheat seeds, after 7 days. How it is done:
Diabrotica balteata—spray test
Further test concentrations are prepared by dilution with emulsifier containing water.
Soaked wheat seeds (Trificum aestivum) are placed in a multiple well plate filled with agar and some water and are incubated for 1 day to germinate (5 seeds per well). The germinated wheat seeds are sprayed with a test solution containing the desired concentration of the active ingredient. Afterwards each unit is infected with 10-20 larvae of the banded cucumber beetle (Diabrofica balteata).
After 7 days efficacy in % is determined.

Series [1] relates to Myzus persicae. In words: Myzus persicae oral test. To be noted: 120 h. The series is classed as in vivo. How it is done: To produce a suitable preparation of active compound, 1 part by weight of active compound is mixed with the stated amount of solvent, and the concentrate is diluted with water to the desired concentration.
50 μl compound solution is filled in microtiter plates and 150 μl IPL41 insect medium (33% +15% sugar) is added to obtain a total volume of […] per well. Afterwards the plates are sealed with parafilm through which a mixed population of the green peach aphid (Myzus persicae) can suck on the compound preparation.
After 5 days mortality in % is determined. 100% means all aphids have been killed and 0% means none of the aphids have been killed.

Series [2] concerns Nilaparvata lugens. In words: Nilaparvata lugens spray test (solvent 78.0 parts acetone, 1.5 parts dimethylformamide). To be noted: in Oryza sativa, 96 h. Format: in vivo. How it is done: (§2) Nilaparvata Wens—spray test
(§3) To produce a suitable preparation of active compound, 1 part by weight of active compound is mixed with the stated amount of solvents and is diluted with water, containing an emulsifier concentration of 1000 ppm, to the desired concentration. Further test concentrations are prepared by dilution with emulsifier containing water.
Rice plants (Oryza sativa) are sprayed with a preparation of the active ingredient of the desired concentration and the plants are infested with the brown planthopper (Nilaparvata lugens).
(§4) After 4 days mortality in % is determined. 100% means all planthoppers have been killed and 0% means none of the planthoppers have been killed.

A short description of the next series: LogP-Value (HCOOH). The settings on record: for chromatographic logP: HCOOH (formic acid). The series is classed as physicochemical.
The test system of series [3] is Ctenocephalides felis. In words: Ctenocephalides felis in-vitro contact test, adult cat flea. Format: in vivo. The settings on record: 5 μg/cm^2 (=500 g/ha), after 48 hours. How it is done:
Ctenocephalides felis—in-vitro contact tests adult cat flea
9 mg compound is solved in 1 ml acetone and diluted with acetone to the desired concentration. 250 μl of the test solution is filled in 25ml glass test tubes and homogeneously distributed on the inner walls by rotation and tilting on a shaking device (2 h at 30 rpm). With a compound concentration of 900 ppm, an inner surface of 44,7 cm^2 and a homogeneous distribution, a dose of 5 μg/cm^2 is achieved.
After the solvent has evaporated, each test tube is filled with 5-10 adult cat fleas (Ctenocephalides felis), closed with a perforated lid and incubated in a lying position at room temperature and relative humidity. After 48 hours efficacy is determined. The fleas are patted on the ground of the tubes and are incubated on a heating plate at 45-50° C. for at most 5 minutes Immotile or uncoordinated moving fleas, which are not able to escape the heat by climbing upwards, are marked as dead or moribund.
An efficacy of 100% means all fleas are dead or moribund; 0% means no fleas are dead or moribund.

For the next series, the system named is Musca domestica. In words: Musca domestica test (MUSCDO). To be noted: 48 h. The series is classed as in vivo. The method, then: Musca domestica—test (MUSCDO)
as §1
To produce a suitable preparation of active compound, 10 mg of active compound are dissolved in 0.5 ml solvent, and the concentrate is diluted with water to the desired concentration.
10 adult house flies (Musca domestica) are transferred into a container, containing a sponge soaked with a mixture of sugar solution and compound solution of the desired concentration.
After 2 days mortality in % is determined. 100% means all the flies have been killed; 0% means none of the flies have been killed.

The test system of series [4] is Myzus persicae. In words: Myzus persicae spray test. The settings on record: in Brassica rapa, foliar. The series is classed as in vivo. The method, then: Myzus persicae—spray test
as §3
Chinese cabbage (Brassica pekinensis) leaf disks infected with all instars of the green peach aphid (Myzus persicae), are sprayed with a preparation of the active ingredient of the desired concentration.
After 5-6 days mortality in % is determined. 100% means all aphids have been killed and 0% means none of the aphids have been killed.

Another series concerns Nezara viridula. In words: Nezara viridula spray test (solvent 52.5 parts acetone, 7 parts dimethylformamide). The settings on record: in Hordeum vulgare, 96 h. The series is classed as in vivo. How it is done:
Nezara viridula—spray test
To produce a suitable preparation of active compound, 1 part by weight of active compound is mixed with the stated amount of solvent, and the concentrate is diluted with water, containing an emulsifier concentration of 1000 ppm, to the desired concentration Ammonium salt and/or penetration enhancer in a dosage of 1000 ppm are added to the desired concentration if necessary.
Barley plants (Hordeum vulgare) infested with larvae of the southern green stink bug (Nezara viridula) are sprayed with a test solution containing the desired concentration of the active ingredient.
After 4 days mortality in % is determined. 100% means all the stink bugs have been killed; 0% means none of the stink bugs have been killed.

Series [5] concerns Nilaparvata lugens. In words: Nilaparvata lugens spray test (solvent 52.5 parts acetone, 7 parts dimethylformamide). Format: in vivo. The settings on record: in Oryza sativa, 96 h. How it is done:
as §2
To produce a suitable preparation of active compound, 1 part by weight of active compound is mixed with the stated amount of solvents and is diluted with water, containing an emulsifier concentration of 1000 ppm, to the desired concentration. Further test concentrations are prepared by dilution with emulsifier containing water Ammonium salt and/or penetration enhancer in a dosage of 1000 ppm are added to the desired concentration if necessary.
Rice plants (Oryza sativa) are treated by being sprayed with the desired concentration of the active compound and are infested with larvae of the brown planthopper (Nilaparvata lugens).
as §4

Series [6] concerns Ctenocephalides felis. In words: Ctenocephalides felis oral test (CTECFE). The settings on record: 48 h, 100 ppm in cattle blood, adult unfed cat fleas, after 2 days. The series is classed as in vivo. The method, then: Ctenocephalides felis—oral test (CTECFE)
as §1
To produce a suitable preparation of active compound, 10 mg of active compound are dissolved in 0.5 ml solvent, and the concentrate is diluted with cattle blood to the desired concentration.
Approximately 20 adult unfed cat fleas (Ctenocephalides felis) are placed in flea chambers. The blood chamber, sealed with parafilm on the bottom, are filled with cattle blood supplied with compound solution and placed on the gauze covered top of the flea chamber, so that the fleas are able to suck the blood. The blood chamber is heated to 37° C. whereas the flea chamber is kept at room temperature.
After 2 days mortality in % is determined. 100% means all the fleas have been killed; 0% means none of the fleas have been killed.

A further series concerns Phaedon cochleariae. In words: Phaedon cochleariae spray test. The series is classed as in vivo. To be noted: foliar, 168 h, larvae on Chinese cabbage leaf disks, after 7 days. The method, then:
Phaedon cochleariae—spray test
as §3
Chinese cabbage (Brassica pekinensis) leaf disks are sprayed with a preparation of the active ingredient of the desired concentration. Once dry, the leaf disks are infested with mustard beetle larvae (Phaedon cochleariae).
After 7 days mortality in % is determined. 100% means all beetle larvae have been killed and 0% means none of the beetle larvae have been killed.

The mark [7] stands for this setting: 100 ppm, 1st instar larvae, after 2 days, read-out: mortality.

The structures appear in SMILES notation. Like-named read-outs stand apart in the source and are kept apart here.

With `Fc1cc(CN2CCS/C2=C\C(=S)C(F)(F)F)cnc1Cl` [Example I-3, 3-[3-[(6-Chloro-5-fluoro-3-pyridinyl)methyl]-2-thiazolidinylidene]-1,1,1-trifluoro-2-propanthione], the mortality (in general, the share of the test organisms that died) at 100 ppm in the series on Lucilia cuprina turned out to be 100%. In the series on Diabrotica balteata, the “efficacy (seedlings grown up)” value came to 100%. Also, in the series with Myzus persicae [1], the mortality at 4 ppm was 100% and the mortality at 20 ppm was found to be 100%. The compound also registered a mortality at 500 g/ha with Nilaparvata lugens [2] of 100%. Besides, in “LogP-Value (HCOOH)”, the chromatographic logP (commonly a lipophilicity value derived from retention on a column) stood at 1.2.

For the compound `O=C(/C=C1\SCCN1Cc1cnc(Cl)c(F)c1)C(F)(F)F` [Example I-1], the “efficacy (fleas dead or moribund)” value with Ctenocephalides felis [3] is reported as 100%. In addition, in the series with Lucilia cuprina, the mortality at 100 ppm was determined as 100%. For the same compound, in the series with Musca domestica, the mortality at 20 ppm came out at 90%. Also, in the series on Diabrotica balteata, the “efficacy (seedlings grown up)” value stood at 100%. The compound further came in with a mortality at 100 g/ha with Myzus persicae [4] of 100%. In the series with Nezara viridula, this compound had a mortality at 500 g/ha of 100%. This compound displayed a mortality at 500 g/ha in the series with Nilaparvata lugens [5] of 100%. For the same compound, in “LogP-Value (HCOOH)”, the “LogP-Value (HCOOH)” value is given as 2,48 and the chromatographic logP came to 2.47.

`Fc1cc(CN2CCN/C2=C\C(=S)C(F)(F)F)cnc1Cl` [Example I-4, 3-[1-[(6-Chloro-5-fluoro-3-pyridinyl)methyl]-2-imidazolidinylidene]-1,1,1-trifluoro-2-propanthione]: the “efficacy (fleas dead or moribund)” value in the series on Ctenocephalides felis [3] is 100%. For the same compound, the mortality at 100 ppm is 95% in the series with Ctenocephalides felis [6] and 100% in the series on Lucilia cuprina (setting [7]). Also, the “efficacy (seedlings grown up)” value in the series with Diabrotica balteata was found to be 100%. The same compound yielded a mortality at 4 ppm with Myzus persicae [1] of 100%. In addition, the mortality at 500 g/ha amounted to 83% in the series on Phaedon cochleariae and 100% with Nilaparvata lugens [2]. The “LogP-Value (HCOOH)” value in “LogP-Value (HCOOH)” is on record as 2,61. In the series “LogP-Value (HCOOH)”, the chromatographic logP stood at 2.59.

With `O=C(/C=C1\NCCN1Cc1cnc(Cl)c(F)c1)C(F)(F)F` [Example I-2, 3-[1-[(6-Chloro-5-fluoro-3-pyridinyl)methyl]-2-imidazolidinylidene]-1,1,1-trifluoro-2-propanone], the “efficacy (fleas dead or moribund)” value in the series with Ctenocephalides felis [3] stood at 100%. The mortality at 100 ppm in the series with Ctenocephalides felis [6] and in the series on Lucilia cuprina (setting [7]) was 100% in each case. The mortality at 20 ppm with Musca domestica worked out at 100%. Further, in the series with Diabrotica balteata, the “efficacy (seedlings grown up)” value was 100%. The mortality at 100 g/ha with Myzus persicae [4] was found to be 100%. Moreover, the mortality at 500 g/ha with Nezara viridula was 90%; in the series on Nilaparvata lugens [5], 100%. The chromatographic logP in the series “LogP-Value (HCOOH)” was found to be 2.19.
